Results from patent US20190160093A1, “THERAPEUTIC AGENT FOR DISEASE ACCOMPANIED BY EPILEPTIC WAVES” (TAIYO NIPPON SANSO CORPORATION, priority 2010, published 2019).
Where two headings read alike, the source gives them in different places. One block for each compound: values may come before it.

What was measured:
[1] = test system: epileptic model rat (GRY rat); test: Electroencephalogram spike index of epileptic model rat (GRY rat); format: in vivo; conditions: GRY rats
Text: In the present Example, a GRY rat (groggy rat, Cacnala) was used as an epileptic model rat. A GRY rat constantly develops an epileptic seizure in normal conditions, and therefore is an extremely excellent system to evaluate a seizure by subjecting the GRY rat to a treatment. The GRY rat has a mutation in an al subunit of a P/Q-type voltage-dependent calcium channel Cav2.1 which encodes Cacnala gene, and is an epileptic model rat which mainly develops ataxia and absence seizure. The GRY rat takes a mode of autosomal recessive inheritance. The 752nd nucleotide “T” of the Cacnala gene has mutated to “A”. As a result, a codon “ATG” to specify methionine which is the 251st amino acid has mutated to a codon “AAG” to specify lysine (M251K). It has been reported that this mutation is located at extracellular p-loop forming a pore of a calcium channel domain 1 and that this mutation (M251K) results in abnormality of a function of the voltage-dependent calcium ion channel Cav2.1 of the rat (Reference Literatures 1 and 2). The GRY rats with this mutation show extension abnormalities of hind limbs, walking abnormalities, and ataxia, and a seizure which is accompanied with spike and wave discharges of 7-8 Hz on the electroencephalograms from 6-8 weeks of age. The present model rats were dispensed from Institute of Laboratory Animals, Graduate School of Medicine, Kyoto University.
Male GRY rats were anesthetized by administering 35 mg/kg of pentobarbital sodium (Nembutal, Sumitomo Dainippon Pharma Co. Ltd.) intraperitoneally, and were fixed to a brain stereotaxic fixing apparatus (SR-5M, NARISHIGE Group). The head was shaved, the skin was incised along the median line, and the skull was exposed. A small hole was opened on the frontal lobe cortex and the occipital lobe cortex on both sides using a dental drill (FALCON, Morita Corporation). A stainless steel screw electrode (FUKUOKA RASHI) having a diameter of 0.9 mm and a length of 1.7 mm and connected a stainless steel wire having a diameter of 0.2 mm (M T Giken) was embedded in the hole (refer to FIG. 1). A screw electrode was embedded in the root of nose as a Z electrode, and a screw electrode was embedded in the cerebellum as an indifferent electrode. Each electrode was connected to a connector socket (Hirose Electric Co. Ltd.), and fixed to the skull with dental cement (Uni Fast II, GC Dental Products).
The rats placed in the multi-gas concentration control apparatus adjusted to a concentration of carbon dioxide of 5% (v/v), 7% (v/v), or 10% (v/v) were subjected to simultaneous video-electroencephalographic recording. Rats placed in the air were used as a control.
Electroencephalograms of the frontal lobe cortex and the occipital lobe cortex of the rats were measured using an electroencephalograph (Neurofax EEG-1200, NIHON KOHDEN CORPORATION). A spike index was used as an index of evaluation of a seizure. The spike index represents a ratio of duration of a spike in measurement time (15 minutes). The spike means a waveform indicating a sharp change in potential in a short time (refer to FIG. 3).
Carbon dioxide was administered to rats by placing the rats in the multi-gas concentration control apparatus adjusted to a concentration of carbon dioxide of 10% (v/v) (9 rats).
By placing the rats in the multi-gas concentration control apparatus, the rats were administered with 10% (v/v) carbon dioxide, and subjected to simultaneous video-electroencephalographic recording every 15 minutes for one hour, and an effect of suppressing an epileptic seizure (spike index) was measured before and after the administration of carbon dioxide.
Next, electroencephalograms were measured.

[2] = Blood pH of Kyo811 rats after febrile seizures and carbon dioxide; format: in vivo, rat; conditions: Kyo811 rats after febrile seizures, carbon dioxide 10% (v/v)
Procedure: (§1) Immediately after the seizure was induced, the rats were placed in the multi-gas concentration control apparatus adjusted to the concentration of carbon dioxide of 10% (v/v) or the concentration of the normal air, and the situation of the seizure was observed while electroencephalograms were measured continuously.
As a control, the blood pH of the rats (10 rats) before induction of febrile seizures was measured. As a result, it was confirmed that the increase in the concentration of carbon dioxide to 10% (v/v) reduced the blood pH of the rats (FIG. 14).

[3] = test system: epileptic model rat (Kyo811 rat); test: Electroencephalogram and seizure duration of Kyo811 rats with febrile seizures induced by thermal load; format: in vivo; conditions: febrile seizures by warm bath at 45° C., carbon dioxide 10% (v/v) vs normal air
Text: In epilepsy, about 80% of patients of intractable Dravet syndrome (formerly, referred to as Severe Myoclonic Epilepsy in Infancy: SMEI), and about 5-10% of patients of benign generalized epilepsy with febrile seizure plus: GEFS+) have missense mutations in a voltage-dependent sodium channel a subunit type 1 (SCN1A) gene. Therefore, it is considered that the mutations in the SCN1A gene are involved in development of febrile seizures (Reference Literatures 3 and 4). In the present Reference Example, using the Kyo811 rats having a mutation in the Scn1a gene as a genetic factor, suppressive effect of seizure by carbon dioxide was examined. This rat is a febrile seizure model rat which induces febrile seizures by a thermal load, and a GEFS+ model rat.
A Kyo811 rat was prepared as a rat with a mutation in the voltage-dependent sodium channel Scn1a gene by the following technology. […]
After a one-week recovery period, the rats were put into a warm bath at 45° C. for about 3-4 minutes to induce febrile seizures, and electroencephalograms were measured.
as §1, with “continuously. […]” for “continuously.”

8-11 days-old rats = conditions: rats in a chamber containing 5% carbon dioxide; cited from earlier work
[4] = Blood pH and blood gas of GRY rats placed in gas containing carbon dioxide or oxygen; format: in vivo, rat
Procedure: In order to control a concentration of carbon dioxide, multi-gas incubator (MCO-5M; Sanyo Electric Co., Ltd.) was used as a multi-gas concentration control apparatus to adjust the concentration of carbon dioxide in the incubator. A concentration of oxygen was also adjusted for comparison. Main components of the normal dry air are 0.032% (v/v) of carbon dioxide, 20.946% (v/v) of oxygen, and 78.084% (v/v) of nitrogen. Therefore, using the above-described multi-gas concentration control apparatus, the concentration of carbon dioxide was set to 5% (v/v), 7% (v/v), or 10% (v/v), or the concentration of oxygen was set to 17% (v/v). When the concentration of carbon dioxide was adjusted, carbon dioxide gas supplied from a carbon dioxide gas bottle connected to the apparatus was diluted with the air outside. Therefore, carbon dioxide=10% (v/v), oxygen=about 18.85% (v/v), and nitrogen=about 70.28% (v/v). When the concentration of oxygen was set to 17% (v/v), similarly, the concentration was adjusted using nitrogen gas supplied from a nitrogen gas bottle connected to the apparatus. Therefore, carbon dioxide=0.026% (v/v), oxygen=about 17% (v/v), and nitrogen=about 82.974% (v/v). It was confirmed using a gas analyzer AGA-2008 (Astec Co. Ltd.) that each concentration in the incubator was correct under the set conditions.
The surgery of embedding an electrode for measurement of electroencephalograms was performed to eight male GRY rats (9 weeks old). After a one-week recovery period, the GRY rats were placed for one hour in the multi-gas concentration control apparatus adjusted to a concentration of carbon dioxide of 5% (v/v), 7% (v/v), or 10% (v/v), or a concentration of oxygen of 17% (v/v).
Blood samples were collected from the tail vein of the rats placed in the multi-gas concentration control apparatus, and the blood pH and the blood concentration of carbon dioxide were measured using an i-STAT analyzer (Fuso Pharmaceutical Industries, Ltd.) as a blood gas analyzer.
Carbon dioxide or oxygen was administered to rats by placing the rats in the multi-gas concentration control apparatus adjusted to a concentration of carbon dioxide of 10% (v/v) or a concentration of oxygen of 17% (v/v) for 15 minutes, 30 minutes, 45 minutes, or 60 minutes (5-6 rats for each). Rats placed in the multi-gas concentration control apparatus adjusted to a concentration of the normal air were used as a control.

[5] = cited from earlier work
[6] = Blood concentration, blood pH and blood bicarbonate ion after acetazolamide in GRY rats
[7] = 10% (v/v) carbon dioxide for 15 to 60 minutes
[8] = carbon dioxide 5% (v/v), 7% (v/v) or 10% (v/v), one hour
[9] = concentration of oxygen 17% (v/v), one hour
[10] = 50 mg/kg intraperitoneally, 15, 30, 45 and 60 minutes after the administration, saline control

- blood concentration of carbon dioxide [4, 7]: increased
- blood concentration of carbon dioxide [4, 8]: increased
Compound: O=C=O [carbon dioxide]
- time the effect of suppressing a seizure lasts after the administration ([1]; 10% (v/v) carbon dioxide): ≥ 30 min
- average spike index (spike index for 15 minutes before administration assumed to be 1) ([1]; 10% (v/v) carbon dioxide, 0-15 minutes): 0.0074
- average spike index (spike index for 15 minutes before administration assumed to be 1) ([1]; 10% (v/v) carbon dioxide, 16-30 minutes): 0.054
- average spike index (spike index for 15 minutes before administration assumed to be 1) ([1]; 10% (v/v) carbon dioxide, 31-45 minutes): 0.275
- average spike index (spike index for 15 minutes before administration assumed to be 1) ([1]; 10% (v/v) carbon dioxide, 46-60 minutes): 0.416
- effect of suppressing a seizure ([1]; 10% (v/v) carbon dioxide, 15 minutes after the administration): suppress a seizure almost completely
- epileptiform discharges, duration of a spike ([1]; 10% (v/v) carbon dioxide, five minutes from 25 seconds after starting vs five minutes before administration): suppressed significantly
- epileptiform discharges, duration of a spike ([1]; carbon dioxide 7% (v/v) or 10% (v/v), control rats in the air): suppressed significantly
- blood pH [2]: reduced
- epileptiform discharges, duration of a spike [3]: suppressed significantly
- seizure duration (second) [3]: suppressed significantly
- alkalosis in the brain (8-11 days-old rats): can be suppressed
- blood pH [4, 7]: reduced
- blood pH [4, 8]: reduced
- blood pH ([4]; environment of 10% (v/v) carbon dioxide): 7.27
- effect of carbon dioxide gas in the air ([5]; concentration of 1 to 2% (v/v)): causes discomfort
- effect of carbon dioxide gas in the air ([5]; concentration of 3 to 4% (v/v)): stimulates the respiratory center
- effect of carbon dioxide gas in the air ([5]; concentration of 6 to 7% (v/v)): makes breathing difficult
- effect of carbon dioxide gas in the air ([5]; concentration of 7 to 10% (v/v)): causes unconsciousness in a few minutes

Compound: O=O [oxygen, reference compound]
- blood concentration of carbon dioxide [4, 9]: reduced
- blood pH [4, 9]: increased

- time after administration of highest blood concentration of acetazolamide ([6]; 50 mg/kg intraperitoneally): 15 min
- blood pH ([6]; 30 minutes after the administration of 50 mg/kg): 7.08±0.03
Compound: CC(=O)Nc1nnc(S(N)(=O)=O)s1 [acetazolamide, Acetazolamide]
- spike duration of a seizure ([1]; acetazolamide 50 mg/kg intraperitoneally, vs non-administration group): significantly suppresses
- blood bicarbonate ion as compared with the control group [6, 10]: significantly low
- blood pH as compared with the control group [6, 10]: significantly low
